Measured values from EP1285971B1, “Methods for the phenotypic and genotypic assessment of the drug sensitivity of HIV integrase variants” (Tibotec Pharmaceuticals Ltd., priority 2001, dated 2003).
Where two headings read alike, the source gives them in different places.

Key:
WT III B = experiment: microbe, parasite or virus in culture; format: cell-based, HIV-1; conditions: AVE 5, WT III B, primer set 4
Experimental: (§1) The integrase encoding sequence was amplified from either wildtype HIV-1 (IIIB) or NL4.3 virus, or HXB2D site-directed mutant viruses containing mutations in integrase (such as T66I, S153Y, M154I, or combinations thereof) (Hazuda et al., Science 2000, 287, 646-650), or patient samples. Starting from RNA, extracted from virus supernatant or plasma using the QIAamp® viral RNA extraction kit (Qiagen), cDNA was synthesized by reverse transcription (Expand TM reverse transcriptase, 30 min at 42°C) with the primer 3'EGINT10 (SEQ ID NO 11), followed by a nested PCR. The outer PCR was performed with the primers 5'EGINT1 (SEQ ID NO 1) and 3'EGINT10 (SEQ ID NO 11) (ΔR-IN-vif construct) or 5'EGINT3 (SEQ ID NO 4) and 3'EGINT10 (SEQ ID NO 11) (ΔIN construct) (Expand™ High Fidelity PCR system), and 5 µl of the outer product was used for an inner PCR with primers 5'EGINT2 (SEQ ID NO 3) and 3'EGINT11 (SEQ ID NO 12) (ΔR-IN-vif construct) or 5'EGINT4 (SEQ ID NO 5) and 3'EGINT6 (SEQ ID NO 7) (ΔIN construct). In a second protocol the outer primers were identical as described above, the inner primers are 5'EGINT5 (SEQ ID NO 6) and 3'EGINT6 (SEQ ID NO 7). The amplicons can be used for genotyping and phenotyping. Cycling conditions for both PCRs are denaturation for 3 min at 95°C, followed by 30 cycles of 1 min 90°C, 30 sec 55°C, and 2 min 72°C. A final extension was performed at 72°C for 10 min. For recombination, PCR products are purified using the QiaQuick® 96 PCR BioRobot kit (Qiagen), according to the manufacturer's protocol. If the protocol starts from DNA containing the HIV material such as proviral DNA, the reverse transcriptase step is not needed. The nested approach is also not needed when starting from proviral DNA. The obtained amplicons were sequenced using the primers: In_seq1F (SEQ ID NO 17), In_seq2F (SEQ ID NO 18), In_seq3F (SEQ ID NO 19), IN_seq1R (SEQ ID NO 20), IN_seq2R (SEQ ID NO 21), and IN_seq3R (SEQ ID NO 22).
(§2) A ΔR-IN-vif or ΔIN deletion construct was generated by site-directed mutagenesis on the template pSV40HXB2D with the primers MUT-IN1 (SEQ ID NO 13) and MUT-IN2 (ΔR-IN-vif construct) (SEQ ID NO 14) or MUT-IN3 (SEQ ID NO 15) and MUT-IN4 (SEQ ID NO 16) (ΔIN construct) (protocol Site-directed mutagenesis kit, Stratagene). After DpnI digestion for removal of the methylated template DNA, the construct was digested with SmaI and ligated to circulize the plasmid. The plasmid was transformed into competent cells such as Top10 cells, and colonies were screened for the presence of the deletion construct. The IN-deletion construct was checked by sequence analysis with primers 5'EGINT1 (SEQ ID NO 1) or […] and 3'EGINT10 (SEQ ID NO 11) or 3'EGINT11 (SEQ ID NO 12). For use in recombination experiments, large-scale plasmid DNA preparations were linearized by SmaI digestion and recombined with PCR amplified integrase genes from wild type, mutant, or patient viruses. The plasmid containing the integrase deletion (ΔIN) has been deposited pSV40HXB2D-ΔIN. The sequence of said plasmid is 14377 nucleotides long. The ΔR-IN-vif deletion construct is 13975 nucleotides long. The pSV40HXB2D-ΔIN was deposited at the Belgian Coordinated Collections of Micro-Organisms located at the Universiteit Gent - Laboratorium voor Moleculaire Biologie on August 5, 2002 and the accession number is LMBP 4574.
(§3) Recombinant virus was produced by co-transfection by electroporation of the SmaI-linearized IN-deletion construct and the integrase amplicon into MT4 cells or MT4 cells equipped with an LTR driven reporter gene construct. Production of recombinant virus was evaluated by scoring the cytopathogenic effect (CPE) that is induced by HIV-infection of MT4 cells or by the LTR-driven reporter signal induced by HIV infection in MT4 reporter cells.

NL 4-3 = experiment: microbe, parasite or virus in culture; format: cell-based, HIV-1; conditions: for fold change: fold change in EC50; for EC50: read-out: EC 50
Experimental: as §1, §2, §3

patient_146514 = experiment: microbe, parasite or virus in culture; format: cell-based, HIV; conditions: AVE 2, patient_146514, primer set 3
Experimental: as §1, §2, §3

pHXB2D control = experiment: Antiviral experiment with control clone, transfected directly without recombination; format: cell-based, HIV; conditions: AVE 6, pHXB2D control, no recombination
Experimental: Recombinant virus was produced by co-transfection by electroporation of the SmaI-linearized IN-deletion construct and the integrase amplicon into MT4 cells or MT4 cells equipped with an LTR driven reporter gene construct. Production of recombinant virus was evaluated by scoring the cytopathogenic effect (CPE) that is induced by HIV-infection of MT4 cells or by the LTR-driven reporter signal induced by HIV infection in MT4 reporter cells. Green fluorescent protein was used as the reporter signal. Viruses are harvested and titrated at maximum CPE. For recombination the deletion construct pSV40HXB2D-ΔIN was used. Recombination experiments were performed with amplicon from wildtype HIV IIIB and NL4.3, and patient sample 146514 generated by both primer sets. For each recombination 2 µg amplicon was co-transfected with 10 µg SmaI-digested pSV40HXB2D-ΔIN by electroporation into MT4-LTR-EGFP cells. Virus stocks were titrated and tested in an antiviral experiment on a reference panel including nucleoside reverse transcriptase inhibitors (NRTI), non- nucleoside reverse transcriptase inhibitors (NNRTI), protein inhibitor (PR), entry and integrase (IN) inhibitors (Table 2). Recombination was checked by nucleic acid sequence analysis using protocols known to the person skilled in the art. Sequencing primers which can be used are In_seq1F (SEQ ID NO 17), In_seq2F (SEQ ID NO 18), In_seq3F (SEQ ID NO 19), IN_seq1R (SEQ ID NO 20), IN_seq2R (SEQ ID NO 21), and IN_seq3R (SEQ ID NO 22). The recombinant virus was evaluated in an anti-viral assay with a panel of reference compounds including nucleoside RT inhibitors (NRTI) Zidovudine (AZT) Lamivudine (3TC), Didanosine (DDI), non-nucleoside RT inhibitors (NNRTI) Nevirapine (NVP), 4-[[6-amino-5-bromo-2-[(4-cyanophenyl)amino]-4-pyrimidinyl]oxy]-3,5-dimethyl-benzonitrile also referred to as compound 1, 4-[[6-amino-5-bromo-2-[(4-cyanophenyl)amino]-4-pyrimidinyl]oxy]-3,5-dimethyl-Benzonitrile, also referred to as compound 2 protease inhibitors (PR) Saquinavir (SQV), Amprenavir (APV), Indinavir (IDV), [[…]-3-[[(4-aminophenyl)sulfonyl](2-methylpropyl)amino]-2-hydroxy-1-(phenylmethyl)-propyl]-, (3R,3aS,6aR)-hexahydrofuro[2,3-b]furan-3-yl ester carbamic acid also referred to as compound 3, entry-inhibitors (Entry)(AMD3100, DS5000, ATA), and integrase inhibitor (IN) 2-(1-methylethyloxy)-α,γ dioxo-5-(phenylmethyl)-benzenebutanoic acid also referred to as compound 4. […] AVE means antiviral experiment. Type means the type of inhibitor investigated. The fold change is the fold change in EC50. WT III B means that a portion of the wild type IIIB strain has been amplified and used in the antiviral experiment, including transfection and generation of recombinant virus. NL 4-3 means the integrase gene of this laboratory strain has been amplified and subsequently used for the antiviral experiment. […] No recombination has been effected using this HIV clone. pHXB2D has been used directly for transfection and antiviral experiment. Primer set 3 consist of outer primers 5'EGINT3 (SEQ ID NO 4) and 3'EGINT10 (SEQ ID NO 11), and inner primers 5'EGINT4 (SEQ ID NO 5) and 3'EGINT6 (SEQ ID NO 7). Primer set 4 consist of outer primers 5'EGINT3 (SEQ ID NO 4) and 3'EGINT10 (SEQ ID NO 11), and inner primers 5'EGINT5 […] and 3'EGINT6 (SEQ ID NO 7). Other suitable integrase inhibitors include L-731,988, diketo-acids and S-1360.

With `CC(C)CN(C[C@@H](O)[C@H](Cc1ccccc1)NC(=O)O[C@H]1CO[C@H]2OCC[C@H]21)S(=O)(=O)c1ccc(N)cc1` [Compound 3, [(11S,2R)-3-[[(4-aminophenyl)sulfonyl](2-methylpropyl)amino]-2-hydroxy-1-(phenylmethyl)-propyl]-, (3R,3aS,6aR)-hexahydrofuro[2,3-b]furan-3-yl ester carbamic acid] the fold change (WT III B; fold change in EC50) was 0,9, the EC50 (WT III B; read-out: EC 50) was 6.3 nM and the fold change (NL 4-3; AVE 1, NL 4-3, primer set 3) was 0,5. The EC50 (NL 4-3; AVE 1, NL 4-3, primer set 3) was 3.7 nM, the fold change (NL 4-3; AVE 4, NL4-3, primer set 4) was 1,5 and the EC50 (NL 4-3; AVE 4, NL4-3, primer set 4) was 10.9 nM. For the same compound, the fold change (patient_146514; fold change in EC50) was 2,2, the EC50 (patient_146514; read-out: EC 50) was 15.6 nM and the EC50 (pHXB2D control) was 7.1 nM. The fold change (pHXB2D control; fold change in EC50) was 1,0.
